Data reported in EP0038567A1, “Deazapurine nucleoside, formulations thereof, and use thereof in therapy” (THE WELLCOME FOUNDATION LIMITED, priority 1980, dated 1981).
Where two headings read alike, the source gives them in different places.

What was measured:
Antipyretic activity = conditions: in vivo
[1] = system: carrageenan pleurisy (3 hr. exudate volume); assay: Carrageenan Pleurisy Assay (CPA), local (intra-pleural) anti-inflammatory activity; format: in vivo; conditions: read-out: ED50 3 hr. vol. local (intra-pleural)
From the text: Following the procedure described by Vinegar et al. /Eur. J. Rheum. […] There were 5 animals in each drug-treated group and the control group.

cyclooxygenase = assay: Prostaglandin metabolism in vitro, cyclooxygenase pathway; format: biochemical
Analgesic activity = format: in vivo; conditions: per se
liver = assay: Liver damage in animal models; format: in vivo; conditions: animal models used
[2] = earlier disclosed activity (US Patent No. 4 148 888); cited from earlier work
[3] = system: carrageenan pleurisy (3 hour pleural exudate volume); assay: Carrageenan Pleurisy Assay (CPA), acute anti-inflammatory activity, oral dosing; format: in vivo; conditions: for ED50: po, dose reducing the 3 hour exudate volume by 50%, p.o., 5 animals per group, read-out: ED50 3 hr. vol. p.o.
Method: Following the procedure previously described by Vinegar et al. in Proc. Soc. Exp. Biol. Med., 143, 711, (1973) as recently modified /Vinegar et al., Eur. J. Rheum. Inflamm., 1, 204 (1978)/ the acute anti-inflammatory activity of 3-deazaadenosine was compared with that of known anti-inflammatory drugs. The average 3 hour exudate volume for each drug treated group was determined and the % inhibition relative to solvent-fed control animals calculated, the ED 50 (mg/kg body weight) being the dose required to reduce the 3 hour exudate volume by 50%. There were 5 animals in each drug-treated group and the control group.
By means of the Carrageenan Pleurisy Assay of Example 1 the duration of action of the tests compounds after a single oral pretreating dose was determined. For 3-deazaadenosine the effect lasted for 14.9 hours at 6 mg/kg (p.o.) whilst for aspirin (150 mg/kg p.o.) and acetaminophen (220 mg/kg p.o.) the effect lasted for […] and 2 hours respectively. This value represents the time (hours) of drug administration prior to the injection of carrageenan in which the inhibition of the 3 hour pleural exudate volume declined to 40%.

lipoxygenase = assay: Prostaglandin metabolism in vitro, lipoxygenase pathway; format: biochemical
Half life = conditions: in vivo
Water solubility = format: physicochemical
Therapeutic index = conditions: in vivo
adjuvant arthritis = assay: Adjuvant arthritis, developing and established, arthritic joint scores; format: in vivo; conditions: Rattus norvegicus, rats; for ED25: feed or water, 1008 h, drug in diet from day 21 to 42; for ED50: po, 384 h, drug in diet from day 1 to day 16
Method: The effect of 3-deazaadenosine in rats againt both developing and established adjuvant arthritis was determined by the method described by R. Vinegar et al. Journal of Immunopharmacology. 1, 483, (I979). The scoring procedure of A.L.F. Currey and M. Ziff, J. Exp. Med., 121, 185 (1968) was used to assess the arthritic joint scores of rats. There were 5 animals in each drug-treated group. For developing adjuvant arthritis the drugs were administered in the diet from day 1 to day 16. For established adjuvant arthritis the drugs were administered from day 21 to 42.

immune response = conditions: earlier disclosed activity (UK Patent Application No. 40447/78); cited from earlier work

Structure (SMILES): Nc1nccc2c1ncn2[C@@H]1O[C@H](CO)[C@@H](O)[C@H]1O [3-Deazaadenosine, 4-amino-1-β-D-ribofuranosyl-1H-imidazo-[4,5-c]-pyridine]
- antipyretic activity (Antipyretic activity): not antipyretic
- ED50 ([1]; local (intra-pleural) administration, 5 animals per group): 0.05 mg/kg
- inhibition of prostaglandin metabolism, cyclooxygenase pathway (cyclooxygenase): does not inhibit
- analgesic activity (Analgesic activity): no analgesic activity
- liver damage (liver): does not cause liver damage
- dose required for antiviral activity [2]: 100-200 mg/kg per day
- duration of action ([3]; general statement in the description, no dose given): about 15 hours
- ED50 [3]: 2.8 ± 0.65 mg/kg
- duration of action ([3]; single oral pretreating dose 6 mg/kg (p.o.), time before carrageenan at which inhibition of 3 hour pleural exudate volume declined to 40%): 14.9 h
- inhibition of prostaglandin metabolism, lipoxygenase pathway (lipoxygenase): does not inhibit
- half life (Half life): short half life
- water solubility (Water solubility): high water solubility
- therapeutic index (Therapeutic index): high therapeutic index
- ED25 (adjuvant arthritis): ~18 mg/kg/day
- ED50 (adjuvant arthritis): 8 ± 2.8 mg/kg
- dose required for immunesuppression (immune response): more than 30 mg/kg

Structure (SMILES): CC(=O)Oc1ccccc1C(=O)O [Aspirin]
- ED50 [1]: 0.04 mg/kg
- ED50 [3]: 28 ± 3.2 mg/kg
- duration of action ([3]; single oral pretreating dose 150 mg/kg p.o., time before carrageenan at which inhibition of 3 hour pleural exudate volume declined to 40%): 35 h
- ED25 (adjuvant arthritis): 150 mg/kg/day
- ED50 (adjuvant arthritis): 150 ± 53.1 mg/kg

Structure (SMILES): C[C@]12CCC(=O)C=C1CC[C@@H]1[C@@H]2[C@@H](O)C[C@@]2(C)[C@H]1CC[C@]2(O)C(=O)CO [Hydrocortisone]
- ED50 [1]: 0.1 mg/kg
- ED50 [3]: 14 ± 10.2 mg/kg

Structure (SMILES): C[C@]12C=CC(=O)C=C1CC[C@@H]1[C@@H]2[C@@H](O)C[C@@]2(C)[C@H]1CC[C@]2(O)C(=O)CO [Prednisolone]
- ED50 [3]: 3 ± 0.5 mg/kg
- ED25 (adjuvant arthritis): 0.2 mg/kg/day
- ED50 (adjuvant arthritis): 1 ± 0.7 mg/kg

Structure (SMILES): CC(=O)Nc1ccc(O)cc1 [acetaminophen]
- duration of action ([3]; single oral pretreating dose 220 mg/kg p.o., time before carrageenan at which inhibition of 3 hour pleural exudate volume declined to 40%): 2 h
